Here are results for 22 molecules from the NIST ThermoML archive (doi:10.1016/j.jct.2016.01.017).

The nature of the data set: activity coefficient (dimensionless); of the first substance listed, at infinite dilution; xn = mol fraction of the nth substance listed. The settings on record: 100 kPa, Liquid, Chromatography, x1 = 0.

Numbers after ± are expanded uncertainties.

With `CCc1ccccc1` [ethylbenzene] + CCCC[n+]1ccc(C#N)cc1.O=S(=O)([N-]S(=O)(=O)C(F)(F)F)C(F)(F)F, the activity coefficient is, setting by setting: (308.15 K) 2.49 ± 0.21; (318.15 K) 2.58 ± 0.22; (328.15 K) 2.67 ± 0.23; (338.15 K) 2.77 ± 0.24; (348.15 K) 2.85 ± 0.25; (358.15 K) 2.93 ± 0.25. In addition, where the note is “368.15 K”, the activity coefficient was determined as 3.03 ± 0.26.

Consider `CCCCCCC` [heptane] + CCCC[n+]1ccc(C#N)cc1.O=S(=O)([N-]S(=O)(=O)C(F)(F)F)C(F)(F)F, for which the activity coefficient is 45.8 ± 4 (308.15 K); 42.5 ± 3.7 (318.15 K); 39.8 ± 3.4 (328.15 K); 37.4 ± 3.2 (338.15 K); 35.3 ± 3.1 (348.15 K); 33.5 ± 2.9 (358.15 K). The activity coefficient (368.15 K) was found to be 31.7 ± 2.7.

As to `C=CCCCC` [hex-1-ene] + CCCC[n+]1ccc(C#N)cc1.O=S(=O)([N-]S(=O)(=O)C(F)(F)F)C(F)(F)F, the activity coefficient (308.15 K) turned out to be 14.1 ± 1.2; the activity coefficient (318.15 K) amounted to 13.8 ± 1.2; the activity coefficient (328.15 K) was found to be 13.5 ± 1.2; the activity coefficient (338.15 K) is 13.2 ± 1.1; the activity coefficient (348.15 K) was determined as 12.9 ± 1.1; the activity coefficient (358.15 K) was determined as 12.7 ± 1.1. For the same molecule, where the note is “368.15 K”, the activity coefficient amounted to 12.5 ± 1.1.

With `CCCCCC` [hexane] + CCCC[n+]1ccc(C#N)cc1.O=S(=O)([N-]S(=O)(=O)C(F)(F)F)C(F)(F)F, the activity coefficient reads like this: (308.15 K) 33 ± 2.9; (318.15 K) 30.7 ± 2.7; (328.15 K) 28.8 ± 2.5; (338.15 K) 27.1 ± 2.3; (348.15 K) 25.6 ± 2.2; (358.15 K) 24.2 ± 2.1. The activity coefficient (368.15 K) was 23.1 ± 2.

As for `CC(C)c1ccccc1` [isopropylbenzene] + CCCC[n+]1ccc(C#N)cc1.O=S(=O)([N-]S(=O)(=O)C(F)(F)F)C(F)(F)F, the activity coefficient is, setting by setting: (308.15 K) 4.04 ± 0.35; (318.15 K) 4.13 ± 0.36; (328.15 K) 4.22 ± 0.36; (338.15 K) 4.31 ± 0.37; (348.15 K) 4.39 ± 0.38; (358.15 K) 4.47 ± 0.39. For the same molecule, the activity coefficient (368.15 K) came out at 4.56 ± 0.39.

For `CO` [methanol] + CCCC[n+]1ccc(C#N)cc1.O=S(=O)([N-]S(=O)(=O)C(F)(F)F)C(F)(F)F, the activity coefficient reads like this: (308.15 K) 1.33 ± 0.11; (318.15 K) 1.27 ± 0.11; (328.15 K) 1.21 ± 0.1; (338.15 K) 1.17 ± 0.1; (348.15 K) 1.12 ± 0.09; (358.15 K) 1.08 ± 0.09. For the same molecule, the activity coefficient (368.15 K) amounted to 1.05 ± 0.09.

Take `CCCC(=O)OC` [methyl butanoate] + CCCC[n+]1ccc(C#N)cc1.O=S(=O)([N-]S(=O)(=O)C(F)(F)F)C(F)(F)F: the activity coefficient worked out at 1.15 ± 0.1 (308.15 K); 1.22 ± 0.1 (318.15 K); 1.28 ± 0.11 (328.15 K); 1.35 ± 0.11 (338.15 K); 1.42 ± 0.12 (348.15 K); 1.48 ± 0.13 (358.15 K). Further, the activity coefficient (368.15 K) turned out to be 1.55 ± 0.13.

As for `COC(C)=O` [methyl ethanoate] + CCCC[n+]1ccc(C#N)cc1.O=S(=O)([N-]S(=O)(=O)C(F)(F)F)C(F)(F)F, the activity coefficient runs as follows: (308.15 K) 0.607 ± 0.053; (318.15 K) 0.646 ± 0.056; (328.15 K) 0.685 ± 0.059; (338.15 K) 0.724 ± 0.061; (348.15 K) 0.762 ± 0.064; (358.15 K) 0.8 ± 0.067. For the same molecule, where the note is “368.15 K”, the activity coefficient was 0.839 ± 0.07.

Turning to `CCC(=O)OC` [methyl propanoate] + CCCC[n+]1ccc(C#N)cc1.O=S(=O)([N-]S(=O)(=O)C(F)(F)F)C(F)(F)F, the activity coefficient reads like this: (308.15 K) 0.8 ± 0.067; (318.15 K) 0.855 ± 0.071; (328.15 K) 0.905 ± 0.075; (338.15 K) 0.956 ± 0.079; (348.15 K) 1.01 ± 0.08; (358.15 K) 1.06 ± 0.09. Further, the activity coefficient (368.15 K) is 1.11 ± 0.09.

Turning to `CC1CCCCC1` [methylcyclohexane] + CCCC[n+]1ccc(C#N)cc1.O=S(=O)([N-]S(=O)(=O)C(F)(F)F)C(F)(F)F, the activity coefficient (308.15 K) turned out to be 23.4 ± 2; the activity coefficient (318.15 K) turned out to be 21.8 ± 1.9; the activity coefficient (328.15 K) was determined as 20.4 ± 1.8; the activity coefficient (338.15 K) was determined as 19.1 ± 1.7; the activity coefficient (348.15 K) stood at 18 ± 2; the activity coefficient (358.15 K) stood at 17.1 ± 1.5. Moreover, for the setting “368.15 K”, the activity coefficient turned out to be 16.2 ± 1.4.

As for `CCCCCCCCC` [nonane] + CCCC[n+]1ccc(C#N)cc1.O=S(=O)([N-]S(=O)(=O)C(F)(F)F)C(F)(F)F, the activity coefficient (308.15 K) was found to be 92.9 ± 8; the activity coefficient (318.15 K) was determined as 85.9 ± 7.4; the activity coefficient (328.15 K) came to 79.8 ± 6.9; the activity coefficient (338.15 K) was found to be 74.1 ± 6.4; the activity coefficient (348.15 K) amounted to 69.4 ± 6; the activity coefficient (358.15 K) amounted to 65.3 ± 5.7. In addition, the activity coefficient (368.15 K) was determined as 61.5 ± 5.3.

As to `C=CCCCCCC` [oct-1-ene] + CCCC[n+]1ccc(C#N)cc1.O=S(=O)([N-]S(=O)(=O)C(F)(F)F)C(F)(F)F, the activity coefficient (308.15 K) came out at 31.7 ± 2.7; the activity coefficient (318.15 K) stood at 30.1 ± 2.6; the activity coefficient (328.15 K) was 28.6 ± 2.5; the activity coefficient (338.15 K) stood at 27.3 ± 2.4; the activity coefficient (348.15 K) was 26.3 ± 2.3; the activity coefficient (358.15 K) amounted to 25.3 ± 2.2. Besides, for the setting “368.15 K”, the activity coefficient was determined as 24.3 ± 2.1.

Take `CCCCCCCC` [octane] + CCCC[n+]1ccc(C#N)cc1.O=S(=O)([N-]S(=O)(=O)C(F)(F)F)C(F)(F)F: the activity coefficient amounted to 65 ± 5.6 (308.15 K); 59.9 ± 5.2 (318.15 K); 55.3 ± 4.8 (328.15 K); 51.3 ± 4.4 (338.15 K); 47.9 ± 4.1 (348.15 K); 45 ± 4 (358.15 K). For the same molecule, where the note is “368.15 K”, the activity coefficient was determined as 42.4 ± 3.7.

`CCCCCO` [pentan-1-ol] + CCCC[n+]1ccc(C#N)cc1.O=S(=O)([N-]S(=O)(=O)C(F)(F)F)C(F)(F)F: the activity coefficient reads like this: (308.15 K) 3.84 ± 0.33; (318.15 K) 3.58 ± 0.31; (328.15 K) 3.36 ± 0.29; (338.15 K) 3.15 ± 0.27; (348.15 K) 2.97 ± 0.26; (358.15 K) 2.81 ± 0.24. Also, for the setting “368.15 K”, the activity coefficient amounted to 2.67 ± 0.23.

For `CCCC(C)=O` [pentan-2-one] + CCCC[n+]1ccc(C#N)cc1.O=S(=O)([N-]S(=O)(=O)C(F)(F)F)C(F)(F)F, the activity coefficient amounted to 0.697 ± 0.06 (308.15 K); 0.739 ± 0.063 (318.15 K); 0.783 ± 0.066 (328.15 K); 0.824 ± 0.069 (338.15 K); 0.868 ± 0.072 (348.15 K); 0.909 ± 0.075 (358.15 K). The activity coefficient (368.15 K) was determined as 0.95 ± 0.078.

`CCC(=O)CC` [pentan-3-one] + CCCC[n+]1ccc(C#N)cc1.O=S(=O)([N-]S(=O)(=O)C(F)(F)F)C(F)(F)F: the activity coefficient (308.15 K) was determined as 0.697 ± 0.06; the activity coefficient (318.15 K) came out at 0.746 ± 0.063; the activity coefficient (328.15 K) stood at 0.792 ± 0.066; the activity coefficient (338.15 K) turned out to be 0.84 ± 0.07; the activity coefficient (348.15 K) turned out to be 0.889 ± 0.074; the activity coefficient (358.15 K) worked out at 0.936 ± 0.077. Besides, where the note is “368.15 K”, the activity coefficient was determined as 0.984 ± 0.081.

On to `CCCCC` [pentane] + CCCC[n+]1ccc(C#N)cc1.O=S(=O)([N-]S(=O)(=O)C(F)(F)F)C(F)(F)F, for which the activity coefficient reads like this: (308.15 K) 26.7 ± 2.3; (318.15 K) 24.2 ± 2.1; (328.15 K) 22 ± 1.9; (338.15 K) 20.2 ± 1.7; (348.15 K) 18.6 ± 1.6; (358.15 K) 17.2 ± 1.5. In addition, the activity coefficient (368.15 K) came to 16 ± 1.4.

For the molecule `CCCO` [propan-1-ol] + CCCC[n+]1ccc(C#N)cc1.O=S(=O)([N-]S(=O)(=O)C(F)(F)F)C(F)(F)F, the activity coefficient was found to be 2.38 ± 0.21 (308.15 K); 2.23 ± 0.19 (318.15 K); 2.1 ± 0.18 (328.15 K); 1.98 ± 0.17 (338.15 K); 1.88 ± 0.16 (348.15 K); 1.79 ± 0.15 (358.15 K). Where the note is “368.15 K”, the activity coefficient is 1.7 ± 0.14.

Turning to `CC(C)O` [propan-2-ol] + CCCC[n+]1ccc(C#N)cc1.O=S(=O)([N-]S(=O)(=O)C(F)(F)F)C(F)(F)F, the activity coefficient is 2.25 ± 0.19 (308.15 K); 2.08 ± 0.18 (318.15 K); 1.95 ± 0.17 (328.15 K); 1.83 ± 0.16 (338.15 K); 1.73 ± 0.15 (348.15 K); 1.63 ± 0.14 (358.15 K).

For `CCCc1ccccc1` [propylbenzene] + CCCC[n+]1ccc(C#N)cc1.O=S(=O)([N-]S(=O)(=O)C(F)(F)F)C(F)(F)F, the activity coefficient (308.15 K) was 3.8 ± 0.33; the activity coefficient (318.15 K) is 3.94 ± 0.34; the activity coefficient (328.15 K) came out at 4.07 ± 0.35; the activity coefficient (338.15 K) came out at 4.21 ± 0.36; the activity coefficient (348.15 K) came out at 4.33 ± 0.37; the activity coefficient (358.15 K) was 4.45 ± 0.38. Further, the activity coefficient (368.15 K) stood at 4.58 ± 0.4.

`c1ccncc1` [pyridine] + CCCC[n+]1ccc(C#N)cc1.O=S(=O)([N-]S(=O)(=O)C(F)(F)F)C(F)(F)F: the activity coefficient by setting is: (308.15 K) 0.47 ± 0.044; (318.15 K) 0.5 ± 0.046; (328.15 K) 0.53 ± 0.048; (338.15 K) 0.56 ± 0.05; (348.15 K) 0.591 ± 0.052; (358.15 K) 0.62 ± 0.054. Also, the activity coefficient (368.15 K) turned out to be 0.65 ± 0.056.

As for `C=Cc1ccccc1` [styrene] + CCCC[n+]1ccc(C#N)cc1.O=S(=O)([N-]S(=O)(=O)C(F)(F)F)C(F)(F)F, the activity coefficient was 1.28 ± 0.11 (308.15 K); 1.36 ± 0.11 (318.15 K); 1.44 ± 0.12 (328.15 K); 1.52 ± 0.13 (338.15 K); 1.6 ± 0.14 (348.15 K); 1.67 ± 0.14 (358.15 K). Further, the activity coefficient (368.15 K) stood at 1.75 ± 0.15.
